What was measured:
Type in all cases: cell-based
T-84 = test: Cell proliferation assay T-84; conditions: Homo sapiens, T84, Colon, 72 hours, read-out: IC50 antiproliferative activity
Experimental: (§1) Growth inhibition was accessed by adenosine triphosphate (ATP) content assay using Promega CellTiter-Glo kit. Promega CellTiter-Glo kit is an ATP monitoring system based on firefly luciferase. Briefly, 16 μl of mammalian cell lysis and substrate solution was added to 84 µl of culture medium per well to lyse the cells and stabilize the ATP. The mixture was shaken and incubated for 30 minutes and subsequently the luminescence was measured. IC50 values were calculated using PRISM software (GraphPad Software) with sigmoidal dose-response curve fitting.

MDA-MB-468 = test: Cell proliferation assay MDA-MB-468; conditions: Homo sapiens, Breast, 72 hours, read-out: IC50 antiproliferative activity
Experimental: as §1

H358 = test: Cell proliferation assay H358; conditions: Homo sapiens, NCI-H358, NSCLC, 72 hours, read-out: IC50 antiproliferative activity
Experimental: as §1

Pfeiffer = test: Cell proliferation assay Pfeiffer; conditions: Homo sapiens, B-Cell Lymphoma, 72 hours, read-out: IC50 antiproliferative activity
Experimental: as §1

HL-60 = test: Cell proliferation assay HL-60; conditions: Homo sapiens, AML, 72 hours, read-out: IC50 antiproliferative activity
Experimental: as §1

HuT78 = test: Cell proliferation assay HuT78; conditions: Homo sapiens, T-Cell Lymphoma, 72 hours, read-out: IC50 antiproliferative activity
Experimental: as §1

RPMI-8226 = test: Cell proliferation assay RPMI-8226; conditions: Homo sapiens, Multiple Myeloma, 72 hours, read-out: IC50 antiproliferative activity
Experimental: as §1

K562 = test: Cell proliferation assay K562; conditions: Homo sapiens, CML, 72 hours, read-out: IC50 antiproliferative activity
Experimental: as §1

RL = test: Cell proliferation assay RL; conditions: Homo sapiens, B-Cell Lymphoma, 72 hours, read-out: IC50 antiproliferative activity
Experimental: as §1

SW620 = test: Cell proliferation assay SW620; conditions: Homo sapiens, SW-620, Colon, 72 hours, read-out: IC50 antiproliferative activity
Experimental: as §1

MEG-01 = test: Cell proliferation assay MEG-01; conditions: Homo sapiens, CML, 72 hours, read-out: IC50 antiproliferative activity
Experimental: as §1

HCT116 = test: Cell proliferation assay HCT116; conditions: Homo sapiens, HCT-116, Colon, 72 hours, read-out: IC50 antiproliferative activity
Experimental: as §1

MDA-MB-361 = test: Cell proliferation assay MDA-MB-361; conditions: Homo sapiens, Breast, 72 hours, read-out: IC50 antiproliferative activity
Experimental: as §1

MiaPaca2 = test: Cell proliferation assay MiaPaca2; conditions: Homo sapiens, MIA PaCa-2, Pancreas, 72 hours, read-out: IC50 antiproliferative activity
Experimental: as §1

MOLT-4 = test: Cell proliferation assay MOLT-4; conditions: Homo sapiens, ALL, 72 hours, read-out: IC50 antiproliferative activity
Experimental: as §1

UACC-893 = test: Cell proliferation assay UACC-893; conditions: Homo sapiens, Breast, 72 hours, read-out: IC50 antiproliferative activity
Experimental: as §1

T47D = test: Cell proliferation assay T47D; conditions: Homo sapiens, Breast, 72 hours, read-out: IC50 antiproliferative activity
Experimental: as §1

THP-1 = test: Cell proliferation assay THP-1; conditions: Homo sapiens, AML, 72 hours, read-out: IC50 antiproliferative activity
Experimental: as §1

Granta 519 = test: Cell proliferation assay Granta 519; conditions: Homo sapiens, B-Cell Lymphoma, 72 hours, read-out: IC50 antiproliferative activity
Experimental: as §1

HCC1806 = test: Cell proliferation assay HCC1806; conditions: Homo sapiens, Breast, 72 hours, read-out: IC50 antiproliferative activity
Experimental: as §1

OPM-2 = test: Cell proliferation assay OPM-2; conditions: Homo sapiens, Multiple Myeloma, 72 hours, read-out: IC50 antiproliferative activity
Experimental: as §1

ZR-75-1 = test: Cell proliferation assay ZR-75-1; conditions: Homo sapiens, Breast, 72 hours, read-out: IC50 antiproliferative activity
Experimental: as §1

MDA-MB-453 = test: Cell proliferation assay MDA-MB-453; conditions: Homo sapiens, Breast, 72 hours, read-out: IC50 antiproliferative activity
Experimental: as §1

Raji = test: Cell proliferation assay Raji; conditions: Homo sapiens, B-Cell Lymphoma, 72 hours, read-out: IC50 antiproliferative activity
Experimental: as §1

H292 = test: Cell proliferation assay H292; conditions: Homo sapiens, NCI-H292, NSCLC, 72 hours, read-out: IC50 antiproliferative activity
Experimental: as §1

MDA-MB-231 = test: Cell proliferation assay MDA-MB-231; conditions: Homo sapiens, Breast, 72 hours, read-out: IC50 antiproliferative activity
Experimental: as §1

SUP-B15 = test: Cell proliferation assay SUP-B15; conditions: Homo sapiens, ALL, 72 hours, read-out: IC50 antiproliferative activity
Experimental: as §1

H460 = test: Cell proliferation assay H460; conditions: Homo sapiens, NCI-H460, NSCLC, 72 hours, read-out: IC50 antiproliferative activity
Experimental: as §1

Su-DHL4 = test: Cell proliferation assay Su-DHL4; conditions: Homo sapiens, SU-DHL-4, B-Cell Lymphoma, 72 hours, read-out: IC50 antiproliferative activity
Experimental: as §1

BT474 = test: Cell proliferation assay BT474; conditions: Homo sapiens, BT-474, Breast, 72 hours, read-out: IC50 antiproliferative activity
Experimental: as §1

CFPAC-1 = test: Cell proliferation assay CFPAC-1; conditions: Homo sapiens, Pancreas, 72 hours, read-out: IC50 antiproliferative activity
Experimental: as §1

MCF-7 = test: Cell proliferation assay MCF-7; conditions: Homo sapiens, MCF7, Breast, 72 hours, read-out: IC50 antiproliferative activity
Experimental: as §1

SKBr3 = test: Cell proliferation assay SKBr3; conditions: Homo sapiens, SK-BR-3, Breast, 72 hours, read-out: IC50 antiproliferative activity
Experimental: as §1

PANC-1 = test: Cell proliferation assay PANC-1; conditions: Homo sapiens, Pancreas, 72 hours, read-out: IC50 antiproliferative activity
Experimental: as §1

SWI-116 = test: Cell proliferation assay SWI-116; conditions: Homo sapiens, Colon, 72 hours, read-out: IC50 antiproliferative activity
Experimental: as §1

SW1990 = test: Cell proliferation assay SW1990; conditions: Homo sapiens, Pancreas, 72 hours, read-out: IC50 antiproliferative activity
Experimental: as §1

H2122 = test: Cell proliferation assay H2122; conditions: Homo sapiens, NCI-H2122, NSCLC, 72 hours, read-out: IC50 antiproliferative activity
Experimental: as §1

HH = test: Cell proliferation assay HH; conditions: Homo sapiens, T-Cell Lymphoma, 72 hours, read-out: IC50 antiproliferative activity
Experimental: as §1

A549 = test: Cell proliferation assay A549; conditions: Homo sapiens, NSCLC, 72 hours, read-out: IC50 antiproliferative activity
Experimental: as §1

HCC1500 = test: Cell proliferation assay HCC1500; conditions: Homo sapiens, Breast, 72 hours, read-out: IC50 antiproliferative activity
Experimental: as §1

Row | Structure (SMILES) | IC50 (T-84) [nM] | IC50 (MDA-MB-468) [nM] | IC50 (H358) [nM] | IC50 (Pfeiffer) [nM] | IC50 (HL-60) [nM] | IC50 (HuT78) [nM] | IC50 (RPMI-8226) [nM] | IC50 (K562) [nM] | IC50 (RL) [nM] | IC50 (SW620) [nM] | IC50 (MEG-01) [nM] | IC50 (HCT116) [nM] | IC50 (MDA-MB-361) [nM] | IC50 (MiaPaca2) [nM] | IC50 (MOLT-4) [nM] | IC50 (UACC-893) [nM] | IC50 (T47D) [nM] | IC50 (THP-1) [nM] | IC50 (Granta 519) [nM] | IC50 (HCC1806) [nM] | further results
1 | COc1ccc(-c2nc(N3CCOCC3)c3sc(CN(C)c4ncc(C(=O)NO)cn4)cc3n2)cn1 [Compound 1, N-hydroxy-2-(((2-(6-methoxypyridin-3-yl)-4-morpholinothieno[3,2-d]pyrimidin-6-yl)methyl)(methyl)amino)pyrimidine-5-carboxamide] | 10 to 100 | 10 to 100 | < 10 | < 10 | < 10 | < 10 | < 10 | 10 to 100 | < 10 | < 10 | < 10 | < 10 | < 10 | 10 to 100 | < 10 | 10 to 100 | 10 to 100 | 10 to 100 | < 10 | 10 to 100 | IC50 (OPM-2): < 10 nM; IC50 (ZR-75-1): 10 to 100 nM; IC50 (MDA-MB-453): < 10 nM; IC50 (Raji): 10 to 100 nM; IC50 (H292): < 10 nM; IC50 (MDA-MB-231): 10 to 100 nM; IC50 (SUP-B15): < 10 nM; IC50 (H460): 10 to 100 nM; IC50 (Su-DHL4): < 10 nM; IC50 (BT474): < 10 nM; IC50 (CFPAC-1): 10 to 100 nM; IC50 (MCF-7): < 10 nM; IC50 (SKBr3): 10 to 100 nM; IC50 (PANC-1): 10 to 100 nM; IC50 (SWI-116): < 10 nM; IC50 (SW1990): < 10 nM; IC50 (H2122): < 10 nM; IC50 (HH): < 10 nM; IC50 (A549): 10 to 100 nM; IC50 (HCC1500): < 10 nM
2 | CS(=O)(=O)N1CCN(Cc2cc3nc(-c4cccc5[nH]ncc45)nc(N4CCOCC4)c3s2)CC1 [GDC-0941, reference compound] | 1000 to 10000 | 100 to 1000 | 1000 to 10000 | 100 to 1000 | 100 to 1000 | 100 to 1000 | > 10000 | 1000 to 10000 | 1000 to 10000 | > 10000 | > 10000 | 1000 to 10000 | 100 to 1000 | > 10000 | 100 to 1000 | 1000 to 10000 | > 10000 | 1000 to 10000 | > 10000 | > 10000 | IC50 (OPM-2): 10 to 100 nM; IC50 (ZR-75-1): 100 to 1000 nM; IC50 (MDA-MB-453): 100 to 1000 nM; IC50 (Raji): > 10000 nM; IC50 (H292): 1000 to 10000 nM; IC50 (MDA-MB-231): > 10000 nM; IC50 (SUP-B15): 1000 to 10000 nM; IC50 (H460): > 10000 nM; IC50 (Su-DHL4): 100 to 1000 nM; IC50 (BT474): 100 to 1000 nM; IC50 (CFPAC-1): > 10000 nM; IC50 (MCF-7): 100 to 1000 nM; IC50 (SKBr3): > 10000 nM; IC50 (PANC-1): 1000 to 10000 nM; IC50 (SWI-116): > 10000 nM; IC50 (SW1990): > 10000 nM; IC50 (H2122): 1000 to 10000 nM; IC50 (HH): 100 to 1000 nM; IC50 (A549): 1000 to 10000 nM; IC50 (HCC1500): > 10000 nM

— patent US11654136B2, “Phosphoinositide 3-kinase inhibitor with a zinc binding moiety” (Curis, Inc., priority 2011, dated 2023)
